Test [1] deals with full-thickness excision wounds on the dorsum of Yucatan minipigs. Put plainly: Yucatan minipig full-thickness excision wound model, histologic evaluation (H&E, Mason's Trichrome). Conditions: for Fibroplasia; dermis, Average Scores / Neovascularization; dermis, Average Scores: minipig wound sites after two doses, Day 59 post wound, average of individual scores, scale 1 minimal to 5 severe. It counts as in vivo. An excerpt:
Porcine skin resembles human skin in many aspects. Both species have a relatively thick epidermis, distinct rete pegs, dermal papillae, and dense elastic fibers in the dermis. Furthermore, unlike rodents and rabbits, porcine skin is adherent to the subcutaneous structures, similar to human skin. Because of these anatomical similarities and other parallelisms in wound healing, porcine models have emerged as important foundations for the study of pathophysiology and potential treatment paradigms for abnormal wound healing. It has also been observed in porcine full-thickness wound healing in Yucatan Minipigs that the spatial and temporal expressions of TGF-β1, PDGF and VEGF were similar to the patterns for the growth factors described above. Therefore, the full-thickness excision models in Yucatan minipigs are the models for human wound healing studies.
(§1) In this experiment, multiple full-thickness excision wounds were made to the dorsum of Yucatan minipigs, and the wound sites were allowed to re-epithelialized adequately. At four weeks post-wound, the wound sites had normal to pink vascularity and had pliability. Epidermal hyperplasia was observed, as expected for regenerative responses in the full-thickness wounds.
(§2) On Day 28 post-wound, a dose (e.g., 1%) of axitinib, nintedanib, riociguat, sorafenib, sunitinib, and/or lenvatinib was administered into the dermal tissue at or around the wound sites, once every two weeks on two occasions. One wound site was left untreated as the control for each pig. Please note that the particular parameters in this example are only for illustration. One skilled in the art would appreciate that the dosages, administration methods, treatment regimen, and the administration sites may be varied to achieve similar results.
On Day 59 post wound, the minipigs were sacrificed and dermal tissues were collected for qualitative and quantitative evaluation using hematoxylin and eosin, and Mason's Trichrome staining. Dermal fibroplasia was characterized by increased numbers of fibroblasts in the dermis suspended in variable amounts of collagen in wounds.

Test [2] deals with TGF-β1 mRNA. Put plainly: TGF-β1 mRNA expression by qRT-PCR in rabbit ear wound sites. The test is classed as in vivo, New Zealand White rabbits. The following applies: for Rabbit TGFB1 mRNA Expression Fold by Treatment Relative to Untreated Wounded (mean ± SD): rabbit ear wound sites, Treated (each drug), N 5 or 6, intradermal; for mean TGFb1 mRNA level after intradermal treatment, in words: rabbit ear, compared with the vehicle-treated wound. The protocol:
(§3) Eight wounds were created on the ventral surface of the ears of each of New Zealand White rabbits using skin punch biopsies, and then the wounds were allowed to heal for approximately 2 weeks.
(§4) A dose (e.g., 1%) of axitinib, nintedanib, riociguat, sorafenib, sunitinib, and/or lenvatinib was administered into the dermal tissue, once every two weeks on two occasions. Again, the specific doses, treatment methods and schedules are for illustration only. One skilled in the art would appreciate that variations and modifications are possible to achieve similar results.
(§5) On Day 42 post wound, the rabbits were sacrificed and dermal tissues were collected for qualitative and quantitative evaluation using hematoxylin and eosin and Mason's Trichrome staining. In addition, TGF-β1 mRNA expression levels were measured using qRT-PCR.

Test [3] has as its system rabbit ear hypertrophic scar. Put plainly: Rabbit ear hypertrophic scar model, histologic evaluation (H&E, Mason's Trichrome). It counts as in vivo, New Zealand White rabbits. The following applies: intradermal, Day 42 post wound, compared with untreated and vehicle-treated wound; for fibrosis of treated wound, in words / neovascularization of treated wound, in words: once every two weeks on two occasions.
Excerpt: In rabbits, wounds are created down to the bare cartilage on the ventral surface of the ear using a dermal biopsy punch. […] By both appearance and histological analysis, these scars resemble human hypertrophic scars. In this established model, it was shown that reduced TGF-β expression results in reduced scarring, which is consistent with the current understanding of the pathogenesis of excessive scarring/dermal fibrosis. […] Thus, this rabbit model was also used to assess the compounds of the invention.
as §3, §4, §5
Histologic slides for hematoxylin and eosin stainings were prepared from the wound sites. Tissues were evaluated qualitatively for inflammation, neovascularization, granulation tissue, degrees of re-epithelialization, and degrees of scarring (avascular collagen).

The test system of test [4] is TGF-β1 mRNA. Description: TGF-β1 mRNA expression by qRT-PCR in Yucatan pig skin wound sites. The test is classed as in vivo, Yucatan minipigs. The following applies: minipig; compared to unwounded normal skin.
Excerpt: as §1, §2
In addition, total mRNA was isolated from skin biopsies of the treated wound sites and the untreated unwounded sites of the pigs. The mRNA samples were used to prepare cDNA and analyzed via qRT-PCR. The TGF-β1 expression levels were assessed using beta actin as a reference gene.

Where [5] appears, read: minipig, two biweekly treatments, histopathology relative to the untreated wound.

Consider six molecules from patent US20200330446A1, “COMPOSITIONS AND METHODS OF TREATING SKIN FIBROTIC DISORDERS” (AIVIVA BIOPHARMA, INC., priority 2015, published 2020).

“Also recorded” adds a separate entry of the source.

For the molecule `CNC(=O)c1ccccc1Sc1ccc2c(/C=C/c3ccccn3)n[nH]c2c1` [axitinib], in test [1], the “Fibroplasia; dermis, Average Scores” value is listed as “(2.33)” and the “Neovascularization; dermis, Average Scores” value (shortened to “Neovascularization; dermis”) is recorded as “(1.67)”. The “Rabbit TGFB1 mRNA Expression Fold by Treatment Relative to Untreated Wounded (mean ± SD)” value in the test with TGF-β1 mRNA [2] was 0.87 ± 0.28 Fold.

For `COc1cc2nccc(Oc3ccc(NC(=O)NC4CC4)c(Cl)c3)c2cc1C(N)=O` [lenvatinib], in test [1], the “Fibroplasia; dermis, Average Scores” value is given as “(3.00)” and the “Neovascularization; dermis” value is “(2.33)”. In test [3], the “re-epithelialization of treated wound, in words” value was “similar”; the “fibrosis of treated wound, in words” value is recorded as “similar”; the “neovascularization of treated wound, in words” value is “similar”. Further, in the test with TGF-β1 mRNA [2], the “Rabbit TGFB1 mRNA Expression Fold by Treatment Relative to Untreated Wounded (mean ± SD)” value came to 0.66 ± 0.25 Fold and the “mean TGFb1 mRNA level after intradermal treatment, in words” value (“mean TGFb1 mRNA level” for short) was “lower”.

For the molecule `COC(=O)c1ccc2c(c1)NC(=O)/C2=C(\Nc1ccc(N(C)C(=O)CN2CCN(C)CC2)cc1)c1ccccc1` [nintedanib], in test [1], the “Fibroplasia; dermis, Average Scores” value is given as “(2.33)” and the “Neovascularization; dermis” value is “(1.67)”. Moreover, in test [1] (setting [5]), the “dermal fibroplasia / fibrosis at treated wound, in words” value is recorded as “reduced” and the “neovascularization at treated wound, in words” value is given as “noticeably reduced”. The “TGF-β1 mRNA expression level at treated wounds, in words” value (from here on “TGF-β1 mRNA expression level”) with TGF-β1 mRNA [4] was “most effective”. For the same molecule, in test [3], the “scar tissues of treated wound, in words” value is “less”; the “fibrosis of treated wound, in words” value is “decreased”; the “neovascularization of treated wound, in words” value is given as “decreased; also recorded: much less”. Also, in the test with TGF-β1 mRNA [2], the “Rabbit TGFB1 mRNA Expression Fold by Treatment Relative to Untreated Wounded (mean ± SD)” value was determined as 0.73 ± 0.13 Fold and the “mean TGFb1 mRNA level” value was “lower”.

In the case of `COC(=O)N(C)c1c(N)nc(-c2nn(Cc3ccccc3F)c3ncccc23)nc1N` [riociguat], in test [1], the “Fibroplasia; dermis, Average Scores” value was “(2.67)” and the “Neovascularization; dermis” value is “(2.67)”. Besides, in the test with TGF-β1 mRNA [4], the “TGF-β1 mRNA expression level” value is on record as “most effective”. In test [3], the “fibrosis of treated wound, in words” value was “slightly decreased” and the “neovascularization of treated wound, in words” value was “slightly decreased”. For the same molecule, in the test with TGF-β1 mRNA [2], the “Rabbit TGFB1 mRNA Expression Fold by Treatment Relative to Untreated Wounded (mean ± SD)” value was found to be 1.14 ± 0.14 Fold.

For `CNC(=O)c1cc(Oc2ccc(NC(=O)Nc3ccc(Cl)c(C(F)(F)F)c3)cc2)ccn1` [sorafenib], in test [1], the “Fibroplasia; dermis, Average Scores” value is reported as “(3.00)” and the “Neovascularization; dermis” value is “(2.33)”. The “TGF-β1 mRNA expression level” value in the test on TGF-β1 mRNA [4] was “most effective”. Further, the “neovascularization of treated wound, in words” value in test [3] is “slightly increased”. Further, in the test on TGF-β1 mRNA [2], the “Rabbit TGFB1 mRNA Expression Fold by Treatment Relative to Untreated Wounded (mean ± SD)” value came to 0.87 ± 0.13 Fold and the “mean TGFb1 mRNA level” value is reported as “lower”.

As for `CCN(CC)CCNC(=O)c1c(C)[nH]c(/C=C2\C(=O)Nc3ccc(F)cc32)c1C` [sunitinib], in test [1], the “Fibroplasia; dermis, Average Scores” value was “(2.67)” and the “Neovascularization; dermis” value is reported as “(2.33)”. The “Rabbit TGFB1 mRNA Expression Fold by Treatment Relative to Untreated Wounded (mean ± SD)” value in the test on TGF-β1 mRNA [2] is recorded as 0.76 ± 0.23 Fold.
